# Legend:
# [1] = fumarate salt; cited from earlier work
# [2] = tested on: metastatic melanoma with the BRAFV600E mutation; conditions: cited from earlier work
# PD-L1 = assay: Tissue samples stained for PD-L1 expression; type: in vivo, human; conditions: patient tissue samples, data not shown
# Text: (§1) Tissue samples were stained for CD8+ T-cells as well as PD-L1 expression. Treatment with vemurafenib alone increased immune tumor CD8+ T-cell infiltration (data not shown). Treatment with either vemurafenib alone or vemurafenib in combination with atezolizumab increased expression of PD-L1 on tumor cells as well as tumor-infiltrating immune cells (data not shown).
# CD8+ T-cells = assay: Tissue samples stained for CD8+ T-cells; type: in vivo, human; conditions: patient tissue samples, data not shown
# Text: as §1
# [3] = tested on: unresectable or metastatic melanoma; conditions: two Phase III studies; cited from earlier work
compound,measurement,setting,value
"O=C(c1ccc(F)c(F)c1Nc1ccc(I)cc1F)N1CC(O)([C@@H]2CCCCN2)C1 [Cobimetinib, (S)-(3,4-difluoro-2-(2-fluoro-4-iodophenylamino)phenyl)(3-hydroxy-3-(piperidin-2-yl)azetidin-1-yl)methanone]",solubility,[1],pH dependent solubility
"CCCS(=O)(=O)Nc1ccc(F)c(C(=O)c2c[nH]c3ncc(-c4ccc(Cl)cc4)cc23)c1F [vemurafenib, propane-1-sulfonic acid {3-[5-(4-chlorophenyl)-1H-pyrrolo[2,3-b]pyridine-3-carbonyl]-2,4-difluoro-phenyl}-amide]",improvement in PFS,[2]; compared with dacarbazine,74%
same,reduction in the risk of death,[2]; compared with dacarbazine,63%
same,hazard ratio for death,"[2]; in favor of vemurafenib vs dacarbazine, median follow-up of 12.5 months","0.70 (95% CI: 0.57, 0.87)"
same,median OS,[2]; median follow-up of 12.5 months,13.6 months
same,Response rates,"[2]; previously untreated, BRAFV600E mutation",48%
same,improvement in median OS,"[2]; vs dacarbazine, median follow-up of 12.5 months",~4 month
same,expression of PD-L1 on tumor cells as well as tumor-infiltrating immune cells,PD-L1,increased
same,immune tumor CD8+ T-cell infiltration,CD8+ T-cells,increased
Ipilimumab: humanized immunoglobulin (Ig)G1 monoclonal antibody that blocks cytotoxic T-lymphocyte-associated antigen 4 (CTLA-4),median PFS,[3],2.8 months
same,overall response rate,[3],10.9%

# — patent publication US20240115555A1, “METHODS OF TREATING CANCER USING B-RAF INHIBITORS AND IMMUNE CHECKPOINT INHIBITORS” (Genentech, Inc., priority 2015, published 2024)
